{"source": "patent US7838542B2", "about": "“Bicyclic compositions and methods for modulating a kinase cascade” (Kinex Pharmaceuticals, LLC, priority 2006, dated 2010)", "key": {"total phosphotyrosine": {"test_system": "total phosphotyrosine", "experiment": "Total phosphotyrosine levels", "format": "cell-based", "settings": "HT29 and c-Src527F/NIH-3T3 cells", "protocol": "(§1) HT29 (colon cancer) and c-Src527F/NIH-3T3 (Src transformed) cell lines were treated with KX2-391 or with AstraZeneca's ATP competitive Src inhibitor AZ28. AZ28 serves as a positive comparator to show what a validated Src inhibitor should do in these assays. After treatment with compound, cells were lysed, subjected to PAGE and probed with a battery of antibodies. […] In addition, off-target protein phosphorylation was also investigated. Further, induction of apoptosis was evaluated via Caspase 3 cleavage. Multiple doses of each compound were tested because the trends in response to increasing drug concentration are the most reliable indicator of activity."}, "Yes": {"target": "Yes (Homo sapiens, UniProt P07947)", "sequence (P07947 whole entry)": "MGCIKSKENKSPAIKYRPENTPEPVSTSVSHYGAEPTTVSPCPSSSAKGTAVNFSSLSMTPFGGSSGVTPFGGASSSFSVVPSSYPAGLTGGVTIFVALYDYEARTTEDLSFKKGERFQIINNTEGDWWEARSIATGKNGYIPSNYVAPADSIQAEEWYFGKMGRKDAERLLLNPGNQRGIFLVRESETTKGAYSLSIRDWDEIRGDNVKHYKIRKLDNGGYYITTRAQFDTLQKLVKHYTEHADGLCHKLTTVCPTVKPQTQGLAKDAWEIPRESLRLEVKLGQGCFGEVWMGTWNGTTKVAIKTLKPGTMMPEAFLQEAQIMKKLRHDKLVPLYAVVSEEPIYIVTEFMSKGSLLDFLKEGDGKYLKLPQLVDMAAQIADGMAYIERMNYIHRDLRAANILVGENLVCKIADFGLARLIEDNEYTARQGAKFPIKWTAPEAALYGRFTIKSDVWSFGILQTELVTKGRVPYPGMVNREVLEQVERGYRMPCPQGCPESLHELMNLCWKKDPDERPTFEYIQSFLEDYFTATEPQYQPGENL", "experiment": "Isolated kinase assay, Yes", "format": "biochemical", "from_the_text": "(§2) Table XV illustrates percent activity of isolated kinases in the presence of the AstraZeneca ATP-competitive inhibitor (KX-328, AZ-28) or KX2-391 relative to control (untreated) isolated kinases."}, "Caspase-3": {"test_system": "Caspase-3", "experiment": "Induction of apoptosis via Caspase 3 cleavage", "format": "cell-based", "settings": "HT29 and c-Src527F/NIH-3T3 cells", "protocol": "as §1\nCleavage of Caspase-3 is a good measure of induction of apoptosis."}, "[1]": {"test_system": "PDGF receptor tyrosine kinase", "experiment": "Isolated kinase assay, PDGF receptor tyrosine kinase", "format": "biochemical", "settings": "@ 10 μM", "from_the_text": "as §2"}, "PKCα(h)": {"target": "PKCα(h) (Homo sapiens, UniProt P17252)", "experiment": "Isolated kinases, percent activity relative to control (Table XV), PKCα", "format": "biochemical", "settings": "@ 10 μM", "from_the_text": "as §2"}, "Shc Y239/240": {"test_system": "Shc Y239/240", "experiment": "Intracellular phosphorylation: Shc Y239/240", "format": "cell-based", "settings": "c-Src/NIH-3T3 and HT-29 cells", "protocol": "as §1\n(§3) The same range of multiples of the GI50 for AZ28 in these two cell lines was run as a comparison."}, "EGFR tyrosine kinase": {"test_system": "EGFR tyrosine kinase", "experiment": "EGFR tyrosine kinase autophosphorylation", "format": "cell-based", "settings": "c-Src/NIH-3T3 and HT-29 cells", "protocol": "as §1\nThis site is not a direct Src phosphorylation site."}, "Fyn": {"target": "Fyn (Homo sapiens, UniProt P06241)", "sequence (P06241 whole entry)": "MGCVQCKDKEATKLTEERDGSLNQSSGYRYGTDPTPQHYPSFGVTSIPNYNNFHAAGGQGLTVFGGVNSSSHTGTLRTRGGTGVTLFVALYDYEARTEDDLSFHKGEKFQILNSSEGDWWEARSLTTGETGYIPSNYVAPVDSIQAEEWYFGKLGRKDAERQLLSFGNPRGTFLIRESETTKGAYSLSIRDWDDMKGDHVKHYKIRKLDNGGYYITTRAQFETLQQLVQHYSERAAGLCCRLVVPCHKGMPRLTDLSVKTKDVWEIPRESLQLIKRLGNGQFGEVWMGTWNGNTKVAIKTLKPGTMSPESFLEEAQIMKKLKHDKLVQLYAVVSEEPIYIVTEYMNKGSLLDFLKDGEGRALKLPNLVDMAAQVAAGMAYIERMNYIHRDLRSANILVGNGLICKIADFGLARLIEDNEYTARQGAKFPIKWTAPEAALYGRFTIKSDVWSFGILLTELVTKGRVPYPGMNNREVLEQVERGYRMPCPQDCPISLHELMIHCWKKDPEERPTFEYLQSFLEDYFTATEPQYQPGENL", "experiment": "Isolated kinase assay, Fyn", "format": "biochemical", "from_the_text": "as §2"}, "ZAP-70(h)": {"target": "ZAP-70(h) (Homo sapiens, UniProt P43403)", "experiment": "Isolated kinases, percent activity relative to control (Table XV), ZAP-70", "format": "biochemical", "settings": "@ 10 μM", "from_the_text": "as §2"}, "[2]": {"test_system": "NCI human colon cancer cell line HT29", "experiment": "Cell growth, HT29", "format": "cell-based"}, "Abl": {"target": "Abl (Homo sapiens, UniProt P00519)", "sequence (P00519 whole entry)": "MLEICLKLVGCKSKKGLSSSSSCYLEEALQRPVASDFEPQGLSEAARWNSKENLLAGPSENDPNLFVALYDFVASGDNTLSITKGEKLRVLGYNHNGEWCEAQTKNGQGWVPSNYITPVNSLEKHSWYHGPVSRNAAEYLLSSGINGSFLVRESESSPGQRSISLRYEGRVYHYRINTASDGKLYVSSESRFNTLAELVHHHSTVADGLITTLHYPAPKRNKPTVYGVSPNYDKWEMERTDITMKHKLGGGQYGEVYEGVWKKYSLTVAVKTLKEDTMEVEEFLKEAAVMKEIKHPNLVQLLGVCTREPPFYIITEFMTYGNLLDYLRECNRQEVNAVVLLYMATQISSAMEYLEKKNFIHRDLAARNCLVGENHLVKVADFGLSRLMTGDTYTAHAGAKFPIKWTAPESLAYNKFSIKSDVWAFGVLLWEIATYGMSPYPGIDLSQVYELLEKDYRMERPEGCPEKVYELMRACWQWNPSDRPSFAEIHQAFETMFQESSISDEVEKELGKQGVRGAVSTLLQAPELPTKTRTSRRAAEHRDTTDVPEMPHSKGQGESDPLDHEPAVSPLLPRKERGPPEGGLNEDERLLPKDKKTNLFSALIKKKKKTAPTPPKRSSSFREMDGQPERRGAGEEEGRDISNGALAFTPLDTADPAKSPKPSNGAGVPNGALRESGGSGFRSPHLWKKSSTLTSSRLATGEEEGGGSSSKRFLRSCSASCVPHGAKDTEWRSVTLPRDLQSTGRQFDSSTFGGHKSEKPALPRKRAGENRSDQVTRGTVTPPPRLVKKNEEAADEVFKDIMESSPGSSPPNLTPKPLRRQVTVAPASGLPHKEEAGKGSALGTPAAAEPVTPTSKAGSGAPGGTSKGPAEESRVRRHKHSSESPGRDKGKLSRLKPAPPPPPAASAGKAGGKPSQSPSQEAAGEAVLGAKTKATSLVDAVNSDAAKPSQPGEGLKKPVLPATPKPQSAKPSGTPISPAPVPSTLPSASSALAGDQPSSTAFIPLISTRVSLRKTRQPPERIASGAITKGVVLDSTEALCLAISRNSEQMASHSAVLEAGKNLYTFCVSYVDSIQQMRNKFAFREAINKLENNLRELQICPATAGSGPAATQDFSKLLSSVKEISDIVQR", "experiment": "Isolated kinase assay, Abl", "format": "biochemical", "from_the_text": "as §2"}, "Pyk2(h)": {"target": "Pyk2(h) (Homo sapiens, UniProt Q14289)", "experiment": "Isolated kinases, percent activity relative to control (Table XV), Pyk2", "format": "biochemical", "settings": "@ 10 μM", "from_the_text": "as §2"}, "[3]": {"test_system": "PDGF receptor tyrosine kinase Y572/574", "experiment": "PDGF receptor autophosphorylation Y572/574", "format": "cell-based", "settings": "c-Src/NIH-3T3 cells", "protocol": "as §1\nPDGF receptor tyrosine kinase autophosphorylates on Y572/574. This is thought not to be a direct Src substrate in cells. […] PDGF receptor tyrosine kinase Y572/574 was not detected in HT29 cells with no drug added (as well as with drug added)."}, "IR(h)": {"target": "IR(h) (Homo sapiens, UniProt P06213)", "experiment": "Isolated kinases, percent activity relative to control (Table XV), IR", "format": "biochemical", "settings": "@ 10 μM", "from_the_text": "as §2"}, "FAK Tyr 925": {"test_system": "FAK Tyr 925", "experiment": "Intracellular phosphorylation: FAK Tyr 925", "format": "cell-based", "settings": "c-Src/NIH-3T3 and HT-29 cells", "protocol": "as §1, §3"}, "FAK Y397": {"test_system": "FAK Y397", "experiment": "FAK Y397 autophosphorylation", "format": "cell-based", "settings": "c-Src527F/NIH3T3 cells", "protocol": "as §1\nFAK Y397 is mainly a FAK autophosphorylation site and only a poor Src transphorylation site."}, "Paxillin Y-31": {"test_system": "Paxillin Y-31", "experiment": "Intracellular phosphorylation: Paxillin Y-31", "format": "cell-based", "settings": "c-Src/NIH-3T3 cells", "protocol": "as §1, §3\nNote: paxillin Y-31 was not detected in HT29 cells with or without added drug."}, "FGFR2(h)": {"target": "FGFR2(h) (Homo sapiens, UniProt P21802)", "experiment": "Isolated kinases, percent activity relative to control (Table XV), FGFR2", "format": "biochemical", "settings": "@ 10 μM", "from_the_text": "as §2"}, "EGFRTK": {"target": "EGFRTK (Homo sapiens, UniProt P00533)", "sequence (P00533 25-1210)": "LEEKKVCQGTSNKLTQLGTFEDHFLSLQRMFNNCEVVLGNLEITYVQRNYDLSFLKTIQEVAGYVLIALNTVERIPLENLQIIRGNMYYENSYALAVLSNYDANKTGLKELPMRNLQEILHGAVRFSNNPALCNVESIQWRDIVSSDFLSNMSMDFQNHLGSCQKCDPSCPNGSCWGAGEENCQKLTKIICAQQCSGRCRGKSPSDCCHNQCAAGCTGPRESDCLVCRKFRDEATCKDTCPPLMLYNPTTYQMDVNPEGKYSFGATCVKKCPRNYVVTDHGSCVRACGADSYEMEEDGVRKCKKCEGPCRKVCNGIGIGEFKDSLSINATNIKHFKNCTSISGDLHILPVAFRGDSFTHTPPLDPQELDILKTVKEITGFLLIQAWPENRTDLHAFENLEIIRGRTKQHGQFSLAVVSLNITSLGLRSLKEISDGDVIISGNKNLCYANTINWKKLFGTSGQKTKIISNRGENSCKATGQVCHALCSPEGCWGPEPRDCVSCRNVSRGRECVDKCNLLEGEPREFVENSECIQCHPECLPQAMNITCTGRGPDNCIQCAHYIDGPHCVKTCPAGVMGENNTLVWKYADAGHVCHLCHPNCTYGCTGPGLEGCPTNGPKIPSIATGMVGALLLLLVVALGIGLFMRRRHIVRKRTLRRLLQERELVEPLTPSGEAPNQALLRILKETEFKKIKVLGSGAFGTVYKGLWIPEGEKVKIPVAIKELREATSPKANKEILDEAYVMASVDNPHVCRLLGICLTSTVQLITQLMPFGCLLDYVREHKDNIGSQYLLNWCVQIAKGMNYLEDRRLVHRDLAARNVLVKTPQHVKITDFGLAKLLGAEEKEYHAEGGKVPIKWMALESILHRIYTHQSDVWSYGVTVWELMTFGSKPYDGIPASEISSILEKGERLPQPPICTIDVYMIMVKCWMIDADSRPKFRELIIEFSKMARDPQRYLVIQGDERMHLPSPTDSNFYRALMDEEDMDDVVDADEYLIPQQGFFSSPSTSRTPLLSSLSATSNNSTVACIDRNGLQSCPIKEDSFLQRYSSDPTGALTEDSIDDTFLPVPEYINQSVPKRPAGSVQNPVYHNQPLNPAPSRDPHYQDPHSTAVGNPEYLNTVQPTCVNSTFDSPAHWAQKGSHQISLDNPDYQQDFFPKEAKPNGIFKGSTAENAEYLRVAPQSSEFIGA", "experiment": "Isolated kinase assay, EGFRTK", "format": "biochemical", "from_the_text": "as §2"}, "Lck": {"target": "Lck (Homo sapiens, UniProt P06239)", "sequence (P06239 whole entry)": "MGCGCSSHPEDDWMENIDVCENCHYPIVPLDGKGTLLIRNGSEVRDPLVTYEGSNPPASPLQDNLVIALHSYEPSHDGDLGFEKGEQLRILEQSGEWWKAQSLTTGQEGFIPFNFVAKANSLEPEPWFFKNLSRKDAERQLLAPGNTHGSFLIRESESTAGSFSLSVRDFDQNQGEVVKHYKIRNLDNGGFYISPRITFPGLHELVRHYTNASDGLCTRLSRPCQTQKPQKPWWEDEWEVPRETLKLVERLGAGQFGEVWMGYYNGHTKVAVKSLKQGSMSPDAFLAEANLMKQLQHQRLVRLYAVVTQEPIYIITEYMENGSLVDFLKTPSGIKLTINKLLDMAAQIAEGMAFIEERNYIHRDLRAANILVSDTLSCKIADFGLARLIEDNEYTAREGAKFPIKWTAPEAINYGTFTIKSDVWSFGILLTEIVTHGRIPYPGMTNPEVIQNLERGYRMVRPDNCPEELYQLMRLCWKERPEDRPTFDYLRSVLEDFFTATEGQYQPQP", "experiment": "Isolated kinase assay, Lck", "format": "biochemical", "from_the_text": "as §2"}, "CHK1(h)": {"target": "CHK1(h) (Homo sapiens, UniProt O14757)", "experiment": "Isolated kinases, percent activity relative to control (Table XV), CHK1", "format": "biochemical", "settings": "@ 10 μM", "from_the_text": "as §2"}, "[4]": {"test_system": "c-Src/NIH-3T3 engineered cell line", "experiment": "Src-driven cell growth, c-Src/NIH-3T3", "format": "cell-based"}, "IGF-1R(h)": {"target": "IGF-1R(h) (Homo sapiens, UniProt P08069)", "experiment": "Isolated kinases, percent activity relative to control (Table XV), IGF-1R", "format": "biochemical", "settings": "@ 10 μM", "from_the_text": "as §2"}, "Lyn": {"target": "Lyn (Homo sapiens, UniProt P07948)", "sequence (P07948 whole entry)": "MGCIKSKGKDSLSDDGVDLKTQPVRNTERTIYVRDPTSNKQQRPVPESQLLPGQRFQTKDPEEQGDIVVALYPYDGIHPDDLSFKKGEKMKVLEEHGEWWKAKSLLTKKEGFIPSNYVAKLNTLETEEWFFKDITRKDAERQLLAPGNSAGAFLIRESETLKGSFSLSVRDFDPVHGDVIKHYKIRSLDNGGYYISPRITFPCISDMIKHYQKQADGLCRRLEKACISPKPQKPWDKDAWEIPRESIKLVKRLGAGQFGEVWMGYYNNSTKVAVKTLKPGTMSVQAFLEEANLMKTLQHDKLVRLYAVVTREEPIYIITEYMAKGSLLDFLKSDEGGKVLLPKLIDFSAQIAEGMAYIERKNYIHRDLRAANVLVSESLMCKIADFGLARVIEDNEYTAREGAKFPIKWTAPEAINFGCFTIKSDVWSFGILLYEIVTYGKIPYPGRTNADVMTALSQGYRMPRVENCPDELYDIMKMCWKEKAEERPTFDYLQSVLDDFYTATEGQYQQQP", "experiment": "Isolated kinase assay, Lyn", "format": "biochemical", "from_the_text": "as §2"}, "isolated kinases": {"test_system": "isolated kinases", "experiment": "Isolated kinases panel, percent activity relative to control (Table XV)", "format": "biochemical", "from_the_text": "as §2"}, "Src-Y416": {"test_system": "Src-Y416", "experiment": "Intracellular phosphorylation: Src-Y416 autophosphorylation", "format": "cell-based", "settings": "HT29 and c-Src527F/NIH-3T3 cells; 0.2×, 1×, 5×, 25× GI50", "protocol": "as §1, §3"}, "MAPK2(h)": {"target": "MAPK2(h) (Homo sapiens, UniProt P28482)", "experiment": "Isolated kinases, percent activity relative to control (Table XV), MAPK2", "format": "biochemical", "settings": "@ 10 μM", "from_the_text": "as §2"}, "Src": {"target": "Src (Homo sapiens, UniProt P12931)", "sequence (P12931 whole entry)": "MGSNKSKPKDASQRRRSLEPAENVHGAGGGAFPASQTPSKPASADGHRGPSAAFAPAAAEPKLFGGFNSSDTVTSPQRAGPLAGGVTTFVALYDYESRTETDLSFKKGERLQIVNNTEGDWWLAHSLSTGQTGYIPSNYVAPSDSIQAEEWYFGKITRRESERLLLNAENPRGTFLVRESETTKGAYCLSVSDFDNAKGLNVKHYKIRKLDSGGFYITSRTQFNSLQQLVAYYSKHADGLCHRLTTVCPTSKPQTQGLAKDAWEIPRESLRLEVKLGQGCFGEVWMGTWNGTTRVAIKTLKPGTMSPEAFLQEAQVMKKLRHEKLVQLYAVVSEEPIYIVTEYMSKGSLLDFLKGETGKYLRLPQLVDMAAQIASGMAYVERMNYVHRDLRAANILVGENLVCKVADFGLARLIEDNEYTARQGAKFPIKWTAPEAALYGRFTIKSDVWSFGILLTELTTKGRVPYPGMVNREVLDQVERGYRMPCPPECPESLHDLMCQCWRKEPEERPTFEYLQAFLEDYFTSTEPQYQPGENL", "experiment": "Isolated kinase assay and titration, Src", "format": "biochemical", "settings": "titration data", "from_the_text": "as §2"}, "PI3 kinase": {"test_system": "PI3 kinase", "experiment": "Isolated kinases, percent activity relative to control (Table XV), PI3 kinase", "format": "biochemical", "settings": "@ 10 μM", "from_the_text": "as §2"}}, "data": [{"smiles": "O=C(Cc1ccc(-c2ccc(OCCN3CCOCC3)cc2)cn1)NCc1ccccc1", "note": "[KX2-391]", "values": [{"measurement": "total phosphotyrosine levels", "setting": "total phosphotyrosine", "result": "reduction in the total phosphotyrosine levels"}, {"measurement": "inhibition of isolated Yes", "setting": "Yes", "result": "poor inhibition"}, {"measurement": "percent activity of isolated kinase relative to control, Yes(h)", "setting": "Yes; @ 10 μM", "result": 92, "unit": "%"}, {"measurement": "induction of apoptosis (Caspase-3 cleavage)", "setting": "Caspase-3", "result": "very effective in inducing apoptosis"}, {"measurement": "percent activity of isolated kinase relative to control, PDGFRβ(h)", "setting": "[1]", "result": 110, "unit": "%"}, {"measurement": "percent activity of isolated kinase relative to control, PKCα(h)", "setting": "PKCα(h)", "result": 111, "unit": "%"}, {"measurement": "phosphorylation of Shc Y239/240", "setting": "Shc Y239/240", "result": "inhibited Src trans-phosphorylation"}, {"measurement": "EGFR tyrosine kinase autophosphorylation", "setting": "EGFR tyrosine kinase", "result": "less active"}, {"measurement": "inhibition of isolated Fyn", "setting": "Fyn", "result": "poor inhibition"}, {"measurement": "percent activity of isolated kinase relative to control, Fyn(h)", "setting": "Fyn; @ 10 μM", "result": 85, "unit": "%"}, {"measurement": "percent activity of isolated kinase relative to control, ZAP-70(h)", "setting": "ZAP-70(h)", "result": 108, "unit": "%"}, {"measurement": "GI50", "setting": "[2]", "result": 23, "unit": "nM"}, {"measurement": "inhibition of isolated Abl", "setting": "Abl", "result": "poor inhibition"}, {"measurement": "percent activity of isolated kinase relative to control, Ab1(h)", "setting": "Abl; @ 10 μM", "result": 120, "unit": "%"}, {"measurement": "percent activity of isolated kinase relative to control, Pyk2(h)", "setting": "Pyk2(h)", "result": 97, "unit": "%"}, {"measurement": "PDGF receptor autophosphorylation", "setting": "[3]", "result": "Some effect is seen"}, {"measurement": "percent activity of isolated kinase relative to control, IR(h)", "setting": "IR(h)", "result": 112, "unit": "%"}, {"measurement": "phosphorylation of FAK Tyr 925", "setting": "FAK Tyr 925", "result": "inhibited Src trans-phosphorylation"}, {"measurement": "FAK autophosphorylation (Y397)", "setting": "FAK Y397", "result": "no inhibition of FAK autophosphorylation"}, {"measurement": "phosphorylation of Paxillin Y-31", "setting": "Paxillin Y-31", "result": "inhibited Src trans-phosphorylation"}, {"measurement": "percent activity of isolated kinase relative to control, FGFR2(h)", "setting": "FGFR2(h)", "result": 94, "unit": "%"}, {"measurement": "inhibition of isolated EGFRTK", "setting": "EGFRTK", "result": "poor inhibition"}, {"measurement": "percent activity of isolated kinase relative to control, EGFR(h)", "setting": "EGFRTK; @ 10 μM", "result": 134, "unit": "%"}, {"measurement": "inhibition of isolated Lck", "setting": "Lck", "result": "poor inhibition"}, {"measurement": "percent activity of isolated kinase relative to control, Lck(h)", "setting": "Lck; @ 10 μM", "result": 109, "unit": "%"}, {"measurement": "percent activity of isolated kinase relative to control, CHK1(h)", "setting": "CHK1(h)", "result": 105, "unit": "%"}, {"measurement": "GI50", "setting": "[4]", "result": 13, "unit": "nM"}, {"measurement": "percent activity of isolated kinase relative to control, IGF-1R(h)", "setting": "IGF-1R(h)", "result": 101, "unit": "%"}, {"measurement": "inhibition of isolated Lyn", "setting": "Lyn", "result": "poor inhibition"}, {"measurement": "percent activity of isolated kinase relative to control, Lyn(h)", "setting": "Lyn; @ 10 μM", "result": 113, "unit": "%"}, {"measurement": "activity against isolated kinases", "setting": "isolated kinases", "result": "weak activity against isolated kinases"}, {"measurement": "Src-Y416 autophosphorylation", "setting": "Src-Y416", "result": "expected dose response"}, {"measurement": "percent activity of isolated kinase relative to control, MAPK2(h)", "setting": "MAPK2(h)", "result": 112, "unit": "%"}, {"measurement": "IC50", "setting": "Src", "result": 46000, "unit": "nM"}, {"measurement": "percent activity of isolated kinase relative to control, PI3 kinase", "setting": "PI3 kinase", "result": 100, "unit": "%"}]}]}
